Reference: publication PMC11062922 (Nature Chemical Biology, 2023)
Values belong to the compound of their own block, whether it stands above or below them.

Columns and labels:
[1] = test system: HSPE1; experiment: Kinobeads competition binding: HSPE1; set-up: species or system human; details: target HSPE1
[2] = test system: JAK2; experiment: Kinobeads competition binding: JAK2; set-up: species or system human; details: target JAK2;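 note: target engagement share of this target among all targets at its Kdapp concentration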
[3] = test system: phosphorylation sites in RKO cells; experiment: Drug-perturbed phosphoproteome analysis in RKO cells; format: cell-based, human; details: RKO cells, 1 µM for 1 hour
From the text: To be able to measure PKN3 activity in cells, bona fide substrates of the kinase would be needed but no such substrate has been conclusively validated yet. In search for such candidates, we compared the phosphoproteomes of RKO cells (human colorectal cancer cells expressing high PKN3 levels according to ProteomicsDB[53]) in response to the same three compounds (that only share PKN3 as a target), as well as THZ1 (a covalent inhibitor for which PKN3 is a reported off-target[51]) and in response to siRNA-mediated knockdown of PKN3 (Extended Data Fig. 9a,b). […] The respective numbers were far smaller for GSK949675A, GSK902056A (all four drugs used at 1 µM for 1 hour) or the siRNA experiment (48 h of knockdown; Fig. 5d, Extended Data Fig. 9d and Supplementary Table 5). Successful PKN3 knockdown (89 and 92% for 1 and 3 nM siRNA, respectively) was confirmed by parallel reaction monitoring (a quantitative mass spectrometry-based protein expression assay; Extended Data Fig. 10a).
For global phosphoproteomic analysis of PKN3 inhibitors, RKO cells were treated with 1 µM GSK949675A, THZ1, GSK902056A, SB-476429A or DMSO for 1 h in four biological replicates or PKN3 were knocked down as described. After treatment, cells were washed twice with PBS and lyzed by adding 300 µl of lysis buffer (40 mM Tris-HCl pH 7.6, 8 M Urea, EDTA-free protease inhibitor complete mini and phosphatase inhibitor cocktail). Lysates were sonicated (ten cycles, 30 s on, 30 s pause, at 4 °C) and subsequently cleared by centrifugation for 20 min at 21,000g at 4 °C. Protein concentration was determined by Bradford assay and 300 µg protein per condition was digested. After reduction with 10 mM DTT and alkylation of cysteine residues with 50 mM chloroacetamide, the Urea concentration was reduced to 1.5 M by adding […] of 40 mM Tris/HCl pH 7.6. Trypsin was added to a protease-to-protein ratio of 1:50 and digestion was performed over night at 37 °C and 700 r.p.m. on a thermoshaker. Samples were cooled down to room temperature and acidified to a pH < 3 with 0.5% trifluoroacetic acid (TFA) and desalted using 50 mg SepPak columns (Waters; wash solvent 0.07% TFA in deionized water; elution solvent 0.07% TFA, 50% ACN). Subsequently, samples were frozen at −80 °C and dried by vacuum centrifugation. Peptide concentrations were determined by NanoDrop 2000 spectrophotometer and peptide amounts were adjusted. Dried peptides were labeled with TMT6plex as published previously. […] Phosphopeptides were enriched using column based Fe-IMAC as described previously. Subsequently, phosphopeptides were separated into six fractions using high pH reversed-phase stage tips as described before. Samples were dried by vacuum centrifugation.
Nanoflow LC–MS/MS measurement of TMT-labeled phosphopeptides was performed using a Dionex Ultimate3000 nano HPLC coupled online to an Orbitrap Fusion Lumos Tribride (Thermo Fisher Scientific) mass spectrometer. Peptides were delivered to a trap column (75 μm × 2 cm, packed in house with 5 μm C18 resin; Reprosil-Pur AQ, Dr. Maisch) and washed for 10 min with 0.1% FA at a flow rate of 5 μl min^−1. […] MS1 spectra were recorded in the Orbitrap from 360 to 1,300 m/z at a resolution of 60,000 using an AGC target value of 4 × 10^5 charges and a maximum injection time of 20 ms. MS2 spectra were recorded in the Orbitrap at 15,000 resolution after HCD fragmentation using 35% NCE, an AGC target value of 5 × 10^4, maximum injection time of 22 ms and an isolation width of 0.7 m/z. The first mass was fixed to 100 m/z. The number of MS2 spectra was limited by a top ten method. For TMT quantification, an additional MS3 spectrum was acquired in the Orbitrap over a scan range of 100–1,000 m/z at 15,000 resolution (AGC of 1 × 10^5, maximum injection time of 50 ms). For this, fragment ions were selected by multi-notch isolation in the Quadrupole, allowing a maximum of ten notches and subsequently fragmentation by HCD at 55% NCE. Dynamic exclusion was set to 90 s. […]

[4] = target: T1, PAK4 (Homo sapiens, UniProt O96013); experiment: Kinobeads full dose-response competition binding: PAK4; details: Gene Name PAK4; for Relative Intensity 0.3nM: 0.3nM compound; for Relative Intensity 0.3nM / Relative Intensity 1nM / Relative Intensity 3nM / Relative Intensity 10nM / Relative Intensity 30nM / Relative Intensity 100nM / Relative Intensity 300nM / Relative Intensity 1000nM: DMSO = 1; for Relative Intensity 1nM: 1nM compound; for Relative Intensity 3nM: 3nM compound; for Relative Intensity 10nM: 10nM compound; for Relative Intensity 30nM: 30nM compound; for Relative Intensity 100nM: 100nM compound; for Relative Intensity 300nM: 300nM compound; for Relative Intensity 1000nM: 1000nM compound
T1 construct: a mixture of lysates from five cancer cell lines; endogenous in cells
T1 sequence (O96013 whole entry): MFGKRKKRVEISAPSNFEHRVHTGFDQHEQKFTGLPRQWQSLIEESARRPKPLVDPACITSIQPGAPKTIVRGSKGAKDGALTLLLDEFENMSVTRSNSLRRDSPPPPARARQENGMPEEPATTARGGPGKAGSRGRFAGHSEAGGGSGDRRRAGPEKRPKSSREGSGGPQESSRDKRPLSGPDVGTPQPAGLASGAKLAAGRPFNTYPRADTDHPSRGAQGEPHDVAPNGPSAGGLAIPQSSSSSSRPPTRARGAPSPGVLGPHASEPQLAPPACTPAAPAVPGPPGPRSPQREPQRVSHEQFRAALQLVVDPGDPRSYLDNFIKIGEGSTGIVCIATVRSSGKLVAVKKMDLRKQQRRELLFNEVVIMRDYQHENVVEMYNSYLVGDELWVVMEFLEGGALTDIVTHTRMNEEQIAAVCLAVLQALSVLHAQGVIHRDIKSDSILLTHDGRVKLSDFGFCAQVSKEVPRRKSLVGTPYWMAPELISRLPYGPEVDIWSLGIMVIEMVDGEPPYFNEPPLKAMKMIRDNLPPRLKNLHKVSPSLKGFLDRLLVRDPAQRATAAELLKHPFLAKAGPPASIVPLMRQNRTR

[5] = target: T2, GSK3B (Homo sapiens, UniProt P49841); experiment: Kinobeads full dose-response competition binding: GSK3B; details: Gene Name GSK3B; for Relative Intensity 0.3nM: 0.3nM compound; for Relative Intensity 0.3nM / Relative Intensity 1nM / Relative Intensity 3nM / Relative Intensity 10nM / Relative Intensity 30nM / Relative Intensity 100nM / Relative Intensity 300nM / Relative Intensity 1000nM: DMSO = 1; for Relative Intensity 1nM: 1nM compound; for Relative Intensity 3nM: 3nM compound; for Relative Intensity 10nM: 10nM compound; for Relative Intensity 30nM: 30nM compound; for Relative Intensity 100nM: 100nM compound; for Relative Intensity 300nM: 300nM compound; for Relative Intensity 1000nM: 1000nM compound; for Kd: EC50 with Correction, read-out: apparent Kd; for Kd / EC50: doses in nM; for EC50: eight-dose curve fit
T2 construct: endogenous in cells
T2 sequence (P49841 whole entry): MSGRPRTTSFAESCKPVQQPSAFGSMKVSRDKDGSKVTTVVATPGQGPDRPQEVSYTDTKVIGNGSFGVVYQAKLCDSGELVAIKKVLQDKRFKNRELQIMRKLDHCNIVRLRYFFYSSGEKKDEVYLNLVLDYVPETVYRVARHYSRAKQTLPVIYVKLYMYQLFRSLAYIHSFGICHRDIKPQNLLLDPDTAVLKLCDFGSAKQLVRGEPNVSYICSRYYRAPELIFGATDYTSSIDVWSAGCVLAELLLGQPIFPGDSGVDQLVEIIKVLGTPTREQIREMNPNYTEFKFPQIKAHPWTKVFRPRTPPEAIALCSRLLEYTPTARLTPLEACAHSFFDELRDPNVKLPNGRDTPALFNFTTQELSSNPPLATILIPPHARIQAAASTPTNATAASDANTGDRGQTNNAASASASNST

[6] = target: T3, PRKX (Homo sapiens, UniProt P51817); experiment: Kinobeads full dose-response competition binding: PRKX; details: Gene Name PRKX; for Relative Intensity 0.3nM: 0.3nM compound; for Relative Intensity 0.3nM / Relative Intensity 1nM / Relative Intensity 3nM / Relative Intensity 10nM / Relative Intensity 30nM / Relative Intensity 100nM / Relative Intensity 300nM / Relative Intensity 1000nM: DMSO = 1; for Relative Intensity 1nM: 1nM compound; for Relative Intensity 3nM: 3nM compound; for Relative Intensity 10nM: 10nM compound; for Relative Intensity 30nM: 30nM compound; for Relative Intensity 100nM: 100nM compound; for Relative Intensity 300nM: 300nM compound; for Relative Intensity 1000nM: 1000nM compound; for Kd: EC50 with Correction, read-out: apparent Kd; for Kd / EC50: doses in nM; for EC50: eight-dose curve fit
T3 construct: endogenous in cells
T3 sequence (P51817 1-358): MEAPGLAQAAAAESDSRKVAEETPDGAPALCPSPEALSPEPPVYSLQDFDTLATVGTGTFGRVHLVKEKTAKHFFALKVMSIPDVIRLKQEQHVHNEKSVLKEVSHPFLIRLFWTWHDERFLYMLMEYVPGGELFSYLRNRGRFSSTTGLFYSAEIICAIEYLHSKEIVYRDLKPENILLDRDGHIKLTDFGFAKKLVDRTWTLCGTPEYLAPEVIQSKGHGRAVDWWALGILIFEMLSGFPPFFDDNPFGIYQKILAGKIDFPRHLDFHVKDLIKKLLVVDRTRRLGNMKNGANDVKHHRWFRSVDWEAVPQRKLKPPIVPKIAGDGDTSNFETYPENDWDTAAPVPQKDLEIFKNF

CATDS [1]: 0 | CATDS [2]: 0
SMILES: Nc1ncnc2[nH]c(-c3ccccc3)nc12 [AH5015_KCGS]

SMILES: CCN1CCN(Cc2ccc(Nc3ncc(F)c(-c4cc(F)c5nc(C)n(C(C)C)c5c4)n3)nc2)CC1 [Abemaciclib]
CATDS [1]: 0 | CATDS [2]: 0

SMILES: CN(C)C/C=C/C(=O)Nc1cc2c(Nc3ccc(F)c(Cl)c3)ncnc2cc1O[C@H]1CCOC1 [Afatinib]
CATDS [1]: 0

SMILES: CCc1cc2c(cc1N1CCC(N3CCOCC3)CC1)C(C)(C)c1[nH]c3cc(C#N)ccc3c1C2=O [Alectinib]
CATDS [1]: 0 | CATDS [2]: 0

SMILES: N#CC1(c2ccc(NC(=O)c3cccnc3NCc3ccncc3)cc2)CCCC1 [Apatinib]
CATDS [1]: 0 | CATDS [2]: 0

Relative Intensity 0.3nM [4]: 1.05 | Relative Intensity 1nM [4]: 1.027 | Relative Intensity 3nM [4]: 1.044 | Relative Intensity 10nM [4]: 0.9586 | Relative Intensity 30nM [4]: 0.8645 | Relative Intensity 100nM [4]: 0.8782 | Relative Intensity 300nM [4]: 0.7175 | Relative Intensity 1000nM [4]: 0.4475 | Relative Intensity 0.3nM [5]: 1.05 | Relative Intensity 1nM [5]: 1.092 | Relative Intensity 3nM [5]: 1.084 | Relative Intensity 10nM [5]: 0.9805 | Relative Intensity 30nM [5]: 0.9007 | Relative Intensity 100nM [5]: 0.8389 | Relative Intensity 300nM [5]: 0.5163 | Relative Intensity 1000nM [5]: 0.2905 | Kd [5]: 288 nM | EC50 [5]: 296 nM | Relative Intensity 0.3nM [6]: 0.9197 | Relative Intensity 1nM [6]: 0.9321 | Relative Intensity 3nM [6]: 1.015 | Relative Intensity 10nM [6]: 0.9379 | Relative Intensity 30nM [6]: 0.8892 | Relative Intensity 100nM [6]: 0.6426 | Relative Intensity 300nM [6]: 0.2553 | Relative Intensity 1000nM [6]: 0.1464 | Kd [6]: 127 nM | EC50 [6]: 127 nM
SMILES: CCn1c(-c2nonc2N)nc2c(C#CC(C)(C)O)nc(OCCN)cc21 [GSK902056A]
number of perturbed phosphorylation sites [3]: far smaller

SMILES: CCn1c(-c2nonc2N)nc2c(C#CC(C)(C)O)nc(OCCNC)cc21 [GSK949675A]
number of perturbed phosphorylation sites [3]: far smaller | Relative Intensity 0.3nM [4]: 1.024 | Relative Intensity 1nM [4]: 1.092 | Relative Intensity 3nM [4]: 1.039 | Relative Intensity 10nM [4]: 0.9797 | Relative Intensity 30nM [4]: 0.9918 | Relative Intensity 100nM [4]: 0.907 | Relative Intensity 300nM [4]: 0.6926 | Relative Intensity 1000nM [4]: 0.4818 | Kd ([4]; EC50 with Correction, doses in nM, read-out: apparent Kd): 218 nM | EC50 ([4]; eight-dose curve fit, doses in nM): 316 nM | Relative Intensity 0.3nM [5]: 0.987 | Relative Intensity 1nM [5]: 0.9621 | Relative Intensity 3nM [5]: 1.1 | Relative Intensity 10nM [5]: 0.9042 | Relative Intensity 30nM [5]: 0.9241 | Relative Intensity 100nM [5]: 0.7846 | Relative Intensity 300nM [5]: 0.5456 | Relative Intensity 1000nM [5]: 0.3036 | Kd [5]: 171 nM | EC50 [5]: 322 nM | Relative Intensity 0.3nM [6]: 1.295 | Relative Intensity 1nM [6]: 1.2278 | Relative Intensity 3nM [6]: 1.244 | Relative Intensity 10nM [6]: 1.16 | Relative Intensity 30nM [6]: 1.169 | Relative Intensity 100nM [6]: 0.9393 | Relative Intensity 300nM [6]: 0.5982 | Relative Intensity 1000nM [6]: 0.3002 | Kd [6]: 221 nM | EC50 [6]: 221 nM

SMILES: NCc1ccc(-c2nc(-c3ccncc3)c(-c3ccc(Cl)c(O)c3)[nH]2)cc1 [SB-476429-A]
PKN3 activation loop p sites (S544 and T550) [3]: substantial reduction | number of perturbed phosphorylation sites [3]: a large number of p sites
